Conditions: in n-hexane

| SMILES | solubility (mole fraction) (293.15 K) | solubility (mole fraction) (298.15 K) | solubility (mole fraction) (303.15 K) | solubility (mole fraction) (310.15 K) | solubility (mole fraction) (315.15 K) |
| --- | --- | --- | --- | --- | --- |
| NC1=NCCC2(CCCCC2)S1 | 3.81e-05 | 5.62e-05 | 7.2e-05 | 0.000105 | 0.000129 |
| CNC1=NCCC2(CCCCC2)S1 | 5.39e-05 | 6.26e-05 | 6.91e-05 | 8.03e-05 | 8.67e-05 |
| CCNC1=NCCC2(CCCCC2)S1 | 0.0025 | 0.0028 | 0.0031 | 0.0037 | 0.0043 |
